According to paper PMC5635026, “Homo-PROTACs: bivalent small-molecule dimerizers of the VHL E3 ubiquitin ligase to induce self-degradation” (Nature Communications, 2017):

How the values were obtained:
pVHL30 = pVHL30 (Homo sapiens, UniProt P40337); assay: Co-treatment / competition experiments on CM11-induced pVHL30 degradation in HeLa cells; format: cell-based; set-up: endogenous in cells; host or cells: HeLa; conditions: CM11 1 µM 4 h
Description: ML4924 and MG132 co-treatment. Cells were transferred in six-well plates with 5 × 10^5 cells per well in 2 ml media in order to achieve 80% confluence the day after. At t = 0, MLN4924 was added into the desired wells at 3 μM final concentration and 0.1% v/v of DMSO. DMSO (0.1% v/v final conc.) was added to the remaining wells in order to match identical conc. of vehicle in all wells. At t = 3 h, MG 132 was added into the desired wells at 50 μM final conc. and 0.1% v/v of DMSO. DMSO (0.1% v/v final conc.) was added to the remaining wells in order to achieve the same conc. of vehicle in all the wells. […] DMSO (0.1% v/v final conc.) was added to the remaining wells to obtain the same conc. of vehicle in all the wells. The total final concentration of DMSO was therefore 0.3% v/v. Plates were incubated for 4 h at 37 °C and 5% CO2 before harvesting. […] Plates were incubated for the desired time at 37 °C and 5% CO2 before harvesting.
Immunoblotting. Cells were lysed in lysis buffer (20 mM Tris pH 8, 150 mM NaCl, 1% Triton × 100) and a protease inhibitor cocktail (Roche) per 10 ml buffer. For protein extracts, the dishes were placed on ice. The media was aspirated and the tissue layer washed twice with ice-cold phosphate buffer saline (PBS). Lysis buffer (120 μl) was added and the cells detached from the surface with a cell scraper. After removal of the insoluble fraction by centrifugation, the protein concentration of the supernatant was determined by Pierce™ Coomassie (Bradford) Protein Assay Kit. Protein extracts were fractionated by SDS-PAGE on 4–12% Tris-Acetate NuPage® Novex® (Life Technologies) polyacrylamide gels and transferred to a nitrocellulose membrane using wet transfer. The membrane was then blocked with 5 % w/v Bovine serum albumin (BSA) in Tris-buffered saline (TBS) with 0.1% w/v Tween-20. For detecting proteins the following primary antibodies in the given concentrations were used: anti-β-Actin (Cell Signaling Technology, 4970S, 13E5) 1:2000, anti-VHL (Cell Signaling Technology, #68547) 1:1000, anti-Hif-1α (BD Biosciences, 610959, clone 54) 1:1,000, anti-hydroxy-HIF-1α (Hyp564) (Cell Signaling Techonology; #3434) 1:1,000, anti-PHD2 (Bethyl Laboratories; A300-322A) 1:1,000, anti-PHD3 (Bethyl Laboratories; A300-327A) 1:1000, anti-CRBN (Proteintech; 11435-1-AP) 1:1,000. Following incubation with a horseradish peroxidase-conjugated secondary antibody (Cell Signaling Technology), the signal was developed using enhanced chemiluminescence (ECL) Western Blotting Detection Kit (Amersham) on Amersham Hyperfilm ECL film (Amersham). Band quantification was performed using ImageJ software and reported as relative amount as ratio of the each protein band relative to the lane’s loading control. The values obtained were then normalized to 0.1% DMSO vehicle control. […]

[1] = system: Hypoxia response element (HRE)-luciferase reporter U2OS-HRE cells; assay: HRE-luciferase reporter assay in U2OS-HRE cells; format: cell-based, Human; conditions: different concentrations and times
Description: Luciferase assay. Assay was performed as described. Briefly, cells (HeLa and U2OS) stably expressing an HRE-luciferase reporter were treated for the indicated times with compounds. Cells were harvested in passive lysis buffer (Promega) and subjected to three freeze-thaw cycles. The soluble lysate fraction was used for assays, performed according to the manufacturer’s instructions (Promega) using a Berthold Lumat LB 9507 Luminometer. Results were normalized for protein concentration, and reported as mean ± s.e.m. from three biological replicates.

HIF-1α = assay: TMT MS proteomics in HeLa cells, HIF-1α level; format: cell-based, Human; conditions: 1 µM, 10 h
Description: MS proteomics. Sample preparation. HeLa cells were seeded at 5 × 10^6 on a 10 cm plate 16 h before treatment. […] Cells were incubated at 37 °C and 5% CO2 for 10 h before harvesting. Cells were placed on ice and medium was removed and cells were washed twice with cold PBS. Cells were lysed in 0.5 ml of 100 mM Tris pH 8.0, 4% (w/v) SDS supplemented with protease inhibitor cocktail (Roche). The lysate was pulse sonicated briefly and then centrifuged at 17,000 × g for 15 min at 4 °C. The supernatant fraction of cell extract was snap-frozen in liquid nitrogen and stored in −80 °C freezer. Further sample processing, digestion, desalting, labeling and fractionation were performed as previously described.
nLC-MS/MS analysis. The TMT 10plex fractions were first analyzed as previously described. Briefly, the TMT 10plex fractions were analyzed sequentially on a Q Exactive HF Hybrid Quadrupole-Orbitrap Mass Spectrometer (Thermo Scientific) coupled to an UltiMate 3000 RSLCnano UHPLC system (Thermo Scientific) and EasySpray column (75 μm × 50 cm, PepMap RSLC C18 column, 2 μm, 100 Å, Thermo Scientific). The MS2 isolation window was set to 0.4 Da and the resolution set at 120,000. MS2 resolution was set at 60,000. […] After the first analysis, the TMT labeled fractions were re-analyzed on the Q-Exactive HF using the same instrument settings and a target list generated from a theoretical trypsin digest of VHL. […]

Chain of pVHL30 (P40337 whole entry): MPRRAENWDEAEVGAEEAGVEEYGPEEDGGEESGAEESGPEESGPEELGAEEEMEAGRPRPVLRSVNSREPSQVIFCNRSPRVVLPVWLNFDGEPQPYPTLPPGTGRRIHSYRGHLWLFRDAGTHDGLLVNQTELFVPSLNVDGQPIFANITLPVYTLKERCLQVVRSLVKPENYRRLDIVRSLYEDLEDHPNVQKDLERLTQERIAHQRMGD

Row | SMILES | CM11 activity after pre-treatment with IOX4 (pVHL30; IOX4 50 µM) | CM11-induced degradation of pVHL30 after pre-treatment with MG132 (pVHL30; MG132 50 µM) | CM11-induced degradation after pre-treatment with MLN4924 (pVHL30; MLN4924 3 µM) | CM11-induced pVHL degradation after pre-treatment with VH032 (pVHL30; VH032 150 µM for 30 min) | luciferase activity relative to DMSO control [1] | protein levels of HIF-1α relative to DMSO (HIF-1α)
1 | Cc1ncsc1-c1ccc(CNC(=O)[C@@H]2C[C@@H](O)CN2C(=O)[C@@H](NC(=O)COCCOCCOCCOCCOCCOCC(=O)N[C@H](C(=O)N2C[C@H](O)C[C@H]2C(=O)NCc2ccc(-c3scnc3C)cc2)C(C)(C)C)C(C)(C)C)cc1 [CM11, N ^1 ,N ^20-bis((S)-1-((2S,4R)-4-hydroxy-2-((4-(4-methylthiazol-5-yl)benzyl)carbamoyl)pyrrolidin-1-yl)-3,3-dimethyl-1-oxobutan-2-yl)-3,6,9,12,15,18-hexaoxaicosanediamide] | did not impact CM11 activity | completely abrogated | prevented | blocked pVHL degradation | no increase | –
2 | Cc1ncsc1-c1ccc(CNC(=O)[C@@H]2C[C@@H](O)CN2C(=O)[C@@H](NC(=O)COCCOCCOCCOCC(=O)N[C@H](C(=O)N2C[C@H](O)C[C@H]2C(=O)NCc2ccc(-c3scnc3C)cc2)C(C)(C)C)C(C)(C)C)cc1 [CM09, N ^1 ,N ^14-bis((S)-1-((2S,4R)-4-hydroxy-2-((4-(4-methylthiazol-5-yl)benzyl)carbamoyl)pyrrolidin-1-yl)-3,3-dimethyl-1-oxobutan-2-yl)-3,6,9,12-tetraoxatetradecanediamide] | – | – | – | – | – | small decrease
